Experimental data taken from patent US9284297B2, “Halofuginone analogs for inhibition of tRNA synthetases and uses thereof” (President and Fellows of Harvard College, priority 2008, dated 2016).

Experiments:
[1] = tested on: CD4+ CD25− T cells (Th1, Th2, iTreg differentiation, proliferation, CD25), CD8+ T cells, B cells; assay: T and B cell activation, proliferation and Th1, Th2, iTreg differentiation; format: cell-based, murine
Protocol: Cytokines secreted into media supernatant were measured using the mouse Th1/Th2 cytometric bead array (CBA—BD Pharmingen) in accordance with manufacturers instructions.

[2] = molecular target: T1, methionyl tRNA synthetase (Oryctolagus cuniculus, UniProt G1SSX5); assay: Incorporation of 35S-labeled methionine into tRNA in rabbit reticulocyte lysate; format: biochemical; conditions: crude in vitro translation system
T1 construct: from tissue; host or cells: rabbit reticulocyte lysate
T1 sequence (G1SSX5 1-900): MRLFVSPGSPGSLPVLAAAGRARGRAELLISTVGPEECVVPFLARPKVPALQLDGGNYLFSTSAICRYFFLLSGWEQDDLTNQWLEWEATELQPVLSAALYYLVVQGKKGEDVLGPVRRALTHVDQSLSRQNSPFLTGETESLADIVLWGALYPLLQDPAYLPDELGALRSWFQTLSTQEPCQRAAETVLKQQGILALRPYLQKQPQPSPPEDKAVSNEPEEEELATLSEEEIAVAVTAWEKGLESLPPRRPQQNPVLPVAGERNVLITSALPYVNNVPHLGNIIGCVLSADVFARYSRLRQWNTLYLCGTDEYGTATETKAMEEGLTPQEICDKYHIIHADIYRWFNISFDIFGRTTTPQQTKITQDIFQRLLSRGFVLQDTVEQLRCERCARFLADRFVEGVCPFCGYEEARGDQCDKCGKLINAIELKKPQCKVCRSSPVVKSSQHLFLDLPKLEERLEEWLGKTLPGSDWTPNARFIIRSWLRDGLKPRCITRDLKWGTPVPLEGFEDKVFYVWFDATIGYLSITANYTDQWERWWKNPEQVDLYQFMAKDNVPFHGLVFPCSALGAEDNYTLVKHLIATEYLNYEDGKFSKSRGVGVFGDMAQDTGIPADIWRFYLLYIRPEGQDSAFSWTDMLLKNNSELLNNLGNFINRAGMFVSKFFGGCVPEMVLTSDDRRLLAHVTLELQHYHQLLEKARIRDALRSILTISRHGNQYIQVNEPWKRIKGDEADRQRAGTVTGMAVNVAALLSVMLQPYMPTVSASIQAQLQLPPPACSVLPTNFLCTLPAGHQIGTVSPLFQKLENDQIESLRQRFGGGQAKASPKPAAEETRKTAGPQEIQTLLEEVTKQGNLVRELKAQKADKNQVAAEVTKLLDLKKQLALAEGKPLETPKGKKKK
Protocol: Total RNA was extracted with acidic phenol-chloroform and tRNA was isolated using miRVANA microRNA isolation kit. Radioisotope incorporation into tRNA was measured in a scintillation counter.

[3] = tested on: Th17 differentiation of CD4+ CD25− T cells; conditions: read-out: 50% inhibition of IL-17 expressing cell (Th17) development; cited from earlier work
[4] = tested on: translation of luciferase RNA in rabbit reticulocyte lysate; assay: Translation of a luciferase RNA reporter in rabbit reticulocyte lysate; format: biochemical; set-up: key to Translational inhibition: “+++” vs. “++” vs. “+” in general denotes ˜4-fold differences in potency; “+++” vs. “++” vs. “+” in general denotes ˜4-fold differences in potency; “+++” vs. “++” vs. “+” in general denotes ˜4-fold differences in potency; “−” denotes no activity at any dose tested, up to 1000× the effective dose of halofuginone
Protocol: To distinguish these possibilities, the effect of halofuginone on protein translation was examined in an in vitro system (rabbit reticulocyte lysate) in which amino acids are already present at levels adequate to support protein synthesis. […] Distinct tRNA synthetases catalyze the charging of individual tRNA species with their cognate amino acid. To determine which tRNA synthetase is inhibited by halofuginone, several amino acid mixtures were added to the in vitro translation system to determine which, if any, could reverse the inhibition of translation by halofuginone (FIG. 3). […] To examine whether proline could specifically rescue the effect of halofuginone in intact cells, the ability of each amino acid to reverse the effect of halofuginone on eIF2alpha phosphorylation in T-cells or to prevent halofuginone inhibition of Th17 differentiation was tested (FIG. 4). […] Inhibition of EPRS with compounds of the current invention can inhibit Th17 differentiation.
Translation in vitro was performed using rabbit reticulocyte lysates and luciferase mRNA as template. Translation was measured as arbitrary units of luciferase activity using a luminometer based luminescence assay. Log scale presentation of background-subtracted data is shown.
Inhibition of translation of luciferase RNA by halofuginone and analogs thereof was measured as described in FIG. 3 above. Results are shown of translation of a luciferase RNA reporter in a rabbit reticulocyte lysate. “+++” vs. “++” vs. “+” in general denotes ˜4-fold differences in potency. “−” denotes no activity at any dose tested, up to 1000× the effective dose of halofuginone.

passive EAE = assay: Passive EAE, transfer of PLP-reactive T cells; format: in vivo, mice; conditions: 2 μg HF daily i.p.
Excerpt: The ability of systemic HF treatment to block IL-17 expression and associated autoimmune inflammation in vivo was examined using two distinct models of experimental autoimmune encephalomyelitis (EAE). […] The second model, a passive model of EAE induction, is initiated by the transfer of myelin proteolipid protein (PLP)-reactive T cells into lymphopenic hosts.
Passive EAE was induced by intravenous transfer of purified CD3^+ splenic T cells isolated from PLP TCR transgenic B10.S mice into syngeneic RAG2-deficient mice (3×10^6 cells/mouse) (Waldner et al., J. Clin. Invest. 113(7):990-997, 2004).
Mice were injected daily with HF (2 μg/mouse) or vehicle control (DMSO) i.p. Clinical signs of EAE were assessed according to the following score: 0, no signs of disease; 1, flaccid tail; 2, weak gait/hind limb paresis; 3, hind limb paralysis; 4, tetraplegia; 5, moribund. Cytokine production during EAE was determined either in peripheral T cells isolated from spleen or lymph nodes of mice prior to disease onset (day 6-10) or in mononuclear cells isolated from the brain and spinal cords of mice with severe disease (clinical score ≧2) between days 15-20. Briefly, splenocytes were stained for intracellular cytokines following erythrocyte lysis with ammonium chloride buffer. T cells were isolated from brain and spinal cords of mice with active EAE following perfusion with cold PBS. […]

O=C(CC1NCCCC1O)Cn1cnc2cc(Br)c(Cl)cc2c1=O (stereo not drawn) [Compound 1, 7-bromo-6-chloro-3-[3-(3-hydroxy-2-piperidinyl)-2-oxopropyl]-4(3H)-quinazolinone]
concentration inducing general inhibition of T and B cell activation, proliferation, and effector function [1]: > 20 nM | effect on T cell proliferation, CD25 upregulation, IL-2, TNF, IFNγ production ([1]; 1-10 nM): did not affect T cell proliferation, CD25 upregulation, or production of IL-2, TNF, or IFNγ | effect on Th1, Th2, iTreg differentiation ([1]; polarizing cytokine conditions, IFNγ, IL-4, Foxp3 expression): failed to modulate Th1, Th2 or iTreg differentiation | inhibition of 35S methionine incorporation into tRNA [2]: not a different tRNA synthetase (methionyl tRNA synthetase) | IC50 [3]: ~3 nM | inhibition of translation of luciferase ([4]; 400 nM): 5-6 orders of magnitude | rescue of translation inhibition by added amino acids ([4]; 400 nM halofuginone, 1-2 mM amino acids): Addition of proline, either alone or in combination with phenylaline and serine, rescues inhibition of translation | Translational inhibition ([4]; luciferase RNA reporter): +++ | EAE disease symptoms, passive model (passive EAE): developed disease symptoms with kinetics and severity similar to control treated animals
